Legend:
Candida albicans (PG) = assay: MIC and MFC for yeast and yeast-like strains; format: cell-based; details: 48 hours, 35° C., read-out: Minimal Inhibitory Concentration (MIC)
Protocol: (§1) The following strains were used (the number of strains is in brackets): Candida (13); Criptococcus (2); Saccharormyces (1); Torulopsis (1).
(§2) Yeast Nitrogen Base supplemented with 0.15% asparagine and 1.0% glucose (as carbon source) was the medium utilized in the assays.
(§3) This medium was buffered with 0.165 M 2-(N-morpholino) propane sulfonic acid (MOPS), a non-chelating buffer.
(§4) Antimicrob. Agents Cheroother. Aug. 34.8:1542-1545).
(§5) The inoculum was prepared from an overnight broth culture (a 48-hour culture only for Cryptococcus) in Sabouraud broth and appropriately diluted to yield a final suspension containing approximately 5.0×10^6 Colony Forming Units per ml (CFU/ml), when compared to the Mc Farland's standard control (BRAY W. E., Clinical Laboratory Methods, 5th Ed. C. V. MOSBY, St. Louis, Mo, 1957).
(§6) After further diluting (1:50), a […] volume of such fungal suspensions and an equal volume of the substance solutions were distributed into each well of a microtiter plate (96 wells, round bottom). Such a procedure eventually allowed for an "in vitro" antimycotic activity assay utilizing final fungal inocula of approximately 5.0×10^4 CFU/ml.
(§7) The minimal fungicidal concentration was evaluated by spot-transferring onto Petri dishes, containing Sabouraud agar, 0.01-ml volumes of all the samples showing no visible fungal growth.

yeast-like fungi = assay: MIC / MFC for yeast-like fungi, all strains; format: cell-based, Candida, Cryptococcus, Saccharomyces, Torulopsis; details: versus susceptible strains; read-out: Mean MIC values
Protocol: as §1, §2
(§8) This medium was buffered with 0.165 M 2-(N-morpholino) propane sulfonic acid (MOPS), a non-chelating buffer. […]
as §5, §6, §7

Penicillium sp. (1302) = assay: MIC for filamentous fungi; format: cell-based; details: read-out: Minimal Inhibitory Concentration (MIC)
Description: (§9) The following strains were used (the number of strains is in brackets): Aspergillus (5); Fusarium (1); Mucor (1); Penicillium (1).
(§10) The tested substances were: ST 712, ST 722, ST 982, ST 983, ST 1000, ST 1001, ST 1032, ST 1033, ST 1034, ST 1036, ST 1037, ST 1038, ST 1050, ST 1051, ST 1052, ST 1053. The assay medium was the same as the one used in the previous study. The conidia from 72-hour cultures in Sabouraud agar, collected by washing with Sabouraud medium and Tween 80 (one drop of Tween per 10 ml of medium), were utilized as inoculum (5.0×10^4 CFU/ml).
(§11) The assay was performed using the same procedure as described for yeast-like fungi.
(§12) Also the evaluation of MIC and MFC was as reported previously.

[1] = system: Aspergillus fumigatus (ATCC 28212); assay: MIC for filamentous fungi; format: cell-based; details: ATCC28212, read-out: Minimal Inhibitory Concentration (MIC)
Description: as §9, §10, §11, §12

[2] = system: Aspergillus fumigatus (1/A); assay: MIC for filamentous fungi; format: cell-based; details: read-out: Minimal Inhibitory Concentration (MIC)
Description: as §9, §10, §11, §12

Mucor mucedo (ATCC 7941) = assay: MIC for filamentous fungi; format: cell-based; details: ATCC7941, read-out: Minimal Inhibitory Concentration (MIC)
Description: as §9, §10, §11, §12

Fusarium sp. (ISS 1) = assay: MIC for filamentous fungi; format: cell-based; details: read-out: Minimal Inhibitory Concentration (MIC)
Description: as §9, §10, §11, §12

[3] = system: Aspergillus fumigatus (C/1); assay: MIC for filamentous fungi; format: cell-based; details: read-out: Minimal Inhibitory Concentration (MIC)
Description: as §9, §10, §11, §12

[4] = system: Aspergillus niger (ATCC 16404); assay: MIC for filamentous fungi; format: cell-based; details: ATCC16404, read-out: Minimal Inhibitory Concentration (MIC)
Description: as §9, §10, §11, §12

[5] = system: Aspergillus fumigatus (2/A); assay: MIC for filamentous fungi; format: cell-based; details: read-out: Minimal Inhibitory Concentration (MIC)
Description: as §9, §10, §11, §12

[6] = system: Candida albicans (ATCC 2091); assay: MIC for yeast and yeast-like strains; format: cell-based; details: ATCC2091, 48 hours, 35° C., read-out: Minimal Inhibitory Concentration (MIC)
Protocol: as §1, §2, §3, §4, §5, §6

Candida glabrata (ISS 1) = assay: MIC for yeast and yeast-like strains; format: cell-based; details: Nakaseomyces glabratus; 48 hours, 35° C.; read-out: Minimal Inhibitory Concentration (MIC)
Protocol: as §1, §2, §3, §4, §5, §6

[7] = system: Candida tropicalis (ISS 1); assay: MIC for yeast and yeast-like strains; format: cell-based; details: 48 hours, 35° C., read-out: Minimal Inhibitory Concentration (MIC)
Protocol: as §1, §2, §3, §4, §5, §6

[8] = system: Candida parapsilosis (ISS 1); assay: MIC for yeast and yeast-like strains; format: cell-based; details: Lodderomyces parapsilosis; 48 hours, 35° C.; read-out: Minimal Inhibitory Concentration (MIC)
Protocol: as §1, §2, §3, §4, §5, §6

[9] = system: Candida guilliermondii (ISS 1); assay: MIC for yeast and yeast-like strains; format: cell-based; details: Meyerozyma guilliermondii; 48 hours, 35° C.; read-out: Minimal Inhibitory Concentration (MIC)
Protocol: as §1, §2, §3, §4, §5, §6

[10] = system: Candida pseudotropicalis (EC 1); assay: MIC for yeast and yeast-like strains; format: cell-based; details: Kluyveromyces marxianus; 48 hours, 35° C.; read-out: Minimal Inhibitory Concentration (MIC)
Protocol: as §1, §2, §3, §4, §5, §6

[11] = system: Cryptococcus neoformans (ISS 1); assay: MIC for yeast and yeast-like strains; format: cell-based; details: 48 hours, 35° C., read-out: Minimal Inhibitory Concentration (MIC)
Protocol: as §1, §2, §3, §4, §5, §6

Candida albicans (ISS 1) = assay: MIC for yeast and yeast-like strains; format: cell-based; details: 48 hours, 35° C., read-out: Minimal Inhibitory Concentration (MIC)
Protocol: as §1, §2, §3, §4, §5, §6

Candida albicans (562) = assay: MIC for yeast and yeast-like strains; format: cell-based; details: 48 hours, 35° C., read-out: Minimal Inhibitory Concentration (MIC)
Protocol: as §1, §2, §8, §5, §6

Candida albicans (Ca 2) = assay: MIC for yeast and yeast-like strains; format: cell-based; details: 48 hours, 35° C., read-out: Minimal Inhibitory Concentration (MIC)
Protocol: as §1, §2, §8, §5, §6

[12] = system: Torulopsis candida (D.S.); assay: MIC for yeast and yeast-like strains; format: cell-based; details: Suzukiozyma candida; 48 hours, 35° C.; read-out: Minimal Inhibitory Concentration (MIC)
Protocol: as §1, §2, §8, §5, §6

[13] = system: Cryptococcus neoformans (4711); assay: MIC for yeast and yeast-like strains; format: cell-based; details: 48 hours, 35° C., read-out: Minimal Inhibitory Concentration (MIC)
Protocol: as §1, §2, §8, §5, §6

[14] = system: Saccharomyces cerevisiae (ATCC 7752); assay: MIC for yeast and yeast-like strains; format: cell-based; details: ATCC7752, 48 hours, 35° C., read-out: Minimal Inhibitory Concentration (MIC)
Protocol: as §1, §2, §8, §5, §6

[15] = system: Candida tropicalis (5705); assay: MIC for yeast and yeast-like strains; format: cell-based; details: 48 hours, 35° C., read-out: Minimal Inhibitory Concentration (MIC)
Protocol: as §1, §2, §8, §5, §6

Candida krusei (ISS 1) = assay: MIC for yeast and yeast-like strains; format: cell-based; details: Pichia kudriavzevii; 48 hours, 35° C.; read-out: Minimal Inhibitory Concentration (MIC)
Protocol: as §1, §2, §8, §5, §6

Candida albicans (A 54) = assay: MIC for yeast and yeast-like strains; format: cell-based; details: 48 hours, 35° C., read-out: Minimal Inhibitory Concentration (MIC)
Protocol: as §1, §2, §8, §5, §6

filamentous fungi = assay: MIC / MFC for filamentous fungi, all strains; format: cell-based, Aspergillus, Fusarium, Mucor, Penicillium; details: versus susceptible strains; read-out: Mean MIC values
Description: as §9, §10, §11, §12

[16] = system: Microsporum canis (IHEM 3522); assay: MIC for dermatophytic fungi; format: cell-based; details: 35° C., 96 hours, read-out: Minimal Inhibitory Concentration (MIC)
Protocol: (§13) The following strains were used: Trichophyton menthagrophytes ATCC 9533, Trichophyton rubrum IHEM 4274, Microsporum canis IHEM 3522, Epydermophyton floccosum IHEM 3495. The tested substances were: ST 722, ST 1033, ST 1037, ST 1050, ST 1051, ST 1052,. ST 1053.
(§14) The assay was performed following the same procedure described for the yeasts, by using 7-day fungi cultures grown at 30° C. in Potato Dextrose agar, and harvested with Sabouraud broth and Tween 80 (0.5%).
(§15) After washing with Yeast Nitrogen Base, supplemented with asparagine and glucose (as carbon source), the fungal suspension was fragmented using a tissue grinder until the largest clumps or aggregates were undetectable within the grinder. This fungal suspension was then appropriately diluted in YNB to yield a concentration of 2.0×10^5 infective particles/ml (small mycelium fragments, micro-and macroaleuriospores).
(§16) Volumes of 100 μl both of the fungal suspensions and substance solutions, two-fold serially diluted in assay medium, were distributed into each well of a microtiter plate (96 wells, round bottom), which was incubated at 35° C. for 96 hours.

[17] = system: Epidermophyton floccosum (IHEM 3495); assay: MIC for dermatophytic fungi; format: cell-based; details: 35° C., 96 hours, read-out: Minimal Inhibitory Concentration (MIC)
Protocol: as §13, §14, §15, §16

[18] = system: Trichophyton rubrum (IHEM 4274); assay: MIC for dermatophytic fungi; format: cell-based; details: 35° C., 96 hours, read-out: Minimal Inhibitory Concentration (MIC)
Protocol: as §13, §14, §15, §16

[19] = system: Trichophyton menthagrophites (ATCC 9533); assay: MIC for dermatophytic fungi; format: cell-based; details: ATCC9533, 35° C., 96 hours, read-out: Minimal Inhibitory Concentration (MIC)
Protocol: as §13, §14, §15, §16

dermatophytic fungi = assay: MIC / MFC for dermatophytic fungi, all strains; format: cell-based, Trichophyton, Microsporum, Epidermophyton; details: versus susceptible strains
Protocol: as §13, §14, §15, §16

| SMILES | MIC (yeast-like fungi) | MIC (Penicillium sp. (1302)) | MIC [1] | MIC (Mucor mucedo (ATCC 7941)) | MIC (Fusarium sp. (ISS 1)) | MIC [4] | MIC (Candida albicans (562)) | MIC (Candida albicans (Ca 2)) | MIC [14] | MIC [15] | MIC (Candida krusei (ISS 1)) | MIC (filamentous fungi) | further results |
| --- | --- | --- | --- | --- | --- | --- | --- | --- | --- | --- | --- | --- | --- |
| CCCCCCCCCCCOC(=O)C[C@H](C[N+](C)(C)C)OC(=O)CCC(C)C [ST 1034] | 3.03 µg/mL | 3.12 µg/mL | 6.25 µg/mL | 12.5 µg/mL | 3.12 µg/mL | 6.25 µg/mL | 1.56 µg/mL | 1.56 µg/mL | 3.12 µg/mL | 3.12 µg/mL | 1.56 µg/mL | 5.85 µg/mL | MIC (Candida albicans (PG)): 3.12 µg/mL; MIC [2]: 6.25 µg/mL; MIC [3]: 6.25 µg/mL; MIC [5]: 3.12 µg/mL; MIC [6]: 1.56 µg/mL; MIC (Candida glabrata (ISS 1)): 3.12 µg/mL; MIC [7]: 3.12 µg/mL; MIC [8]: 6.25 µg/mL; MIC [9]: 6.25 µg/mL; MIC [10]: 6.25 µg/mL; MIC [11]: 3.12 µg/mL; MIC (Candida albicans (ISS 1)): 1.56 µg/mL; MIC [12]: 3.12 µg/mL; MIC [13]: 1.56 µg/mL; MIC (Candida albicans (A 54)): 1.56 µg/mL |
| CCCCCCCCCCCCCOC(=O)C[C@H](C[N+](C)(C)C)OC(=O)CCCCCC [ST 1050] | 4.37 µg/mL | 3.12 µg/mL | 6.25 µg/mL | 12.5 µg/mL | 6.25 µg/mL | 6.25 µg/mL | 6.25 µg/mL | 3.12 µg/mL | 3.12 µg/mL | 6.25 µg/mL | 3.12 µg/mL | 6.85 µg/mL | MIC [16]: 12.5 µg/mL; MIC [17]: 50 µg/mL; MIC [18]: 6.25 µg/mL; MIC [19]: 12.5 µg/mL; MIC (dermatophytic fungi): 20.3 µg/mL |

Reference: patent publication US5525627A, “Esters of acyl carnitines with long-chain aliphatic alcohols and pharmaceutical compositions containing same having antimycotic activity” (Sigma-Tau Industrie Farmaceutiche Riunite S.p.A., priority 1992, dated 1996)
